Experimental data: ChEMBL document CHEMBL5727875, “Substituted bicycle heterocyclic derivatives useful as ROMK channel inhibitors” (2020)

Biological target: T1, ATP-sensitive inward rectifier potassium channel 1 (Homo sapiens, UniProt P48048)
T1 sequence (P48048 whole entry): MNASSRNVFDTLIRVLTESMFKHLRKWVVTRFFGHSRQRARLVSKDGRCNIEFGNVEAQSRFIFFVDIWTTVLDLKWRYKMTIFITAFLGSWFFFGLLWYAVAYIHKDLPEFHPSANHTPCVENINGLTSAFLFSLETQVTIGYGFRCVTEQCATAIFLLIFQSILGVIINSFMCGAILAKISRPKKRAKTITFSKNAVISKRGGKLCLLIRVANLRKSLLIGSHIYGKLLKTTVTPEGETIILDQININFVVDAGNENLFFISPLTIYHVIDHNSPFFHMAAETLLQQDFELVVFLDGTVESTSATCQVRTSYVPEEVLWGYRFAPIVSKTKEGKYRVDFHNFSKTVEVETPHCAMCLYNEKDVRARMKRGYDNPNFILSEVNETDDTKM
Assay: Electrophysiology Assay: The coverslip plated with cells was placed in the experiment chamber perfused with bath solution composed of (in mM): 135 NaCl, 5 KCl, 2 CaCl2), 1 MgCl2, 10 HEPES, 5 Glucose (pH 7.4). Patch pipettes with resistance between 2-5 Megaohms, when filled with a solution containing (in mM): 135 KCl, 1 EGTA, 1 MgCl2, 10 HEPES, 2 Na2ATP (pH 7.3), were used to form gigaseals. The …

SMILES: Cc1c([C@@H](O)CNCc2cnn(-c3ccc4oc(=O)n(C)c4c3)c2)ccc2c1COC2=O
- IC50: 12 nM
